Results as given in the OligoGym collection.
Several values for one entry are separate records, joined by “and”; a condition that tells them apart may be missing. Equal values may be shown once. After the bases stand the sugars from the 5' end (letter, count) and the backbone: PS all phosphorothioate, else s phosphorothioate and o phosphodiester by linkage. Methylation of C is not given here. e = 2'-O-(2-methoxyethyl) (MOE); k = constrained ethyl (cEt); d = 2'-deoxy (DNA)

Biological target: KRAS
Conditions: ASO

## AAAAATTAATGTCTTG (sugars k3 d10 k3, PS)
A431, 2 µM
  target mRNA inhibition: 20%

## AAAAGCTATTAGGAGT (sugars k3 d10 k3, PS)
A431, 2 µM
  target mRNA inhibition: 25%

## AAATTAGTGATTAGGT (sugars k3 d10 k3, PS)
A431, 2 µM
  target mRNA inhibition: 5%

## AACCATTCAAAGTTCA (sugars k3 d10 k3, PS)
A431, 2 µM
  target mRNA inhibition: 35%

## AACGAGAATGGATATT (sugars k3 d10 k3, PS)
A431, 2 µM
  target mRNA inhibition: 4%

## AAGGTAAAAGCTAACA (sugars k3 d10 k3, PS)
A431, 2 µM
  target mRNA inhibition: 21%

## AAGTGTTTATGCAATG (sugars k3 d10 k3, PS)
A431, 2 µM
  target mRNA inhibition: 45%

## AATAGTTTCCATTGCC (sugars k3 d10 k3, PS)
A431, 2 µM
  target mRNA inhibition: 56%

## AATGTCACAAGCAGAA (sugars k3 d10 k3, PS)
A431, 2 µM
  target mRNA inhibition: 49%

## AATTAATGTCTTGGCA (sugars k3 d10 k3, PS)
A431, 2 µM
  target mRNA inhibition: 12%

## ACAGATTGTGCTGAGC (sugars k3 d10 k3, PS)
A431, 2 µM
  target mRNA inhibition: 46%

## ACCAGTGTTAAGAGAA (sugars kkddddddddkekekk, PS)
A431, 2 µM
  target mRNA inhibition: 52%

## ACCATTCAAAGTTCAC (sugars k3 d9 k3 e1, PS)
A431, 2 µM
  target mRNA inhibition: 42%

## ACGAGAATGGATATTC (sugars k3 d10 k3, PS)
A431, 2 µM
  target mRNA inhibition: 29%

## ACTAATAGCAGTGGAA (sugars k3 d10 k3, PS)
A431, 2 µM
  target mRNA inhibition: 27%

## AGATATCCACAGCAGC (sugars k3 d10 k3, PS)
A431, 2 µM
  target mRNA inhibition: 58%

## AGATGGTGTAACATAG (sugars k3 d10 k3, PS)
A431, 2 µM
  target mRNA inhibition: 39%

## AGATTGTGCTGAGCTT (sugars k3 d9 k3 e1, PS)
A431, 2 µM
  target mRNA inhibition: 42%

## AGATTGTGCTGAGCTT (sugars kddddddddddkekek, PS)
A431, 2 µM
  target mRNA inhibition: 7%

## AGCTTGATCGAAGAGT (sugars k3 d10 k3, PS)
A431, 5 µM
  target mRNA inhibition: 50%

## AGGAGTCTTTATAGTA (sugars k3 d10 k3, PS)
A431, 0.185 µM
  target mRNA inhibition: 14%
A431, 0.556 µM
  target mRNA inhibition: 42%
A431, 1.667 µM
  target mRNA inhibition: 58%
A431, 2 µM
  target mRNA inhibition: 66% and 65% and 57%
A431, 5 µM
  target mRNA inhibition: 77%

## AGGAGTCTTTATAGTA (sugars kkddddddddkekekk, PS)
A431, 2 µM
  target mRNA inhibition: 21%

## AGTGATTAGGTCAAAT (sugars kkddddddddkekekk, PS)
A431, 2 µM
  target mRNA inhibition: 46%

## AGTGTGACTCAGTTAA (sugars k3 d9 k3 e1, PS)
A431, 2 µM
  target mRNA inhibition: 15%

## AGTGTGACTCAGTTAA (sugars kkddddddddddkeke, PS)
A431, 2 µM
  target mRNA inhibition: 41%

## AGTGTGACTCAGTTAA (sugars kkdddddddddkdkdk, PS)
A431, 2 µM
  target mRNA inhibition: 38%

## AGTTTCACATAGCAAT (sugars k3 d10 k3, PS)
A431, 2 µM
  target mRNA inhibition: 38%

## ATAATAATCCCCATTT (sugars k3 d10 k3, PS)
A431, 2 µM
  target mRNA inhibition: 4%

## ATATCCACAGCAGCAG (sugars k3 d10 k3, PS)
A431, 2 µM
  target mRNA inhibition: 39%

## ATCCATTTATGTGACT (sugars k3 d10 k3, PS)
A431, 2 µM
  target mRNA inhibition: 38%

## ATCTTTTAATGTCACA (sugars k3 d10 k3, PS)
A431, 0.037 µM
  target mRNA inhibition: 74%
A431, 2 µM
  target mRNA inhibition: 58%
A431, 5 µM
  target mRNA inhibition: 97% and 96%
NCI-H460, 0.037 µM
  target mRNA inhibition: 65.3%

## ATGCTGTGAAACTCTC (sugars kddddddddddkekek, PS)
A431, 2 µM
  target mRNA inhibition: 18%

## ATGCTGTGAAACTCTC (sugars kkddddddddddkeke, PS)
A431, 2 µM
  target mRNA inhibition: 35%

## ATGCTGTGAAACTCTC (sugars kkddddddddkekekk, PS)
A431, 2 µM
  target mRNA inhibition: 25%

## ATGCTGTGAAACTCTC (sugars kkkdddddddddkeke, PS)
A431, 2 µM
  target mRNA inhibition: 2%

## ATGGTGTAACATAGGT (sugars kdddddddddkekeke, PS)
A431, 2 µM
  target mRNA inhibition: 39%

## ATGGTGTAACATAGGT (sugars kkddddddddddkeke, PS)
A431, 0.185 µM
  target mRNA inhibition: 22%
A431, 0.556 µM
  target mRNA inhibition: 39%
A431, 1.667 µM
  target mRNA inhibition: 60%
A431, 2 µM
  target mRNA inhibition: 65%
A431, 5 µM
  target mRNA inhibition: 69%

## ATGGTGTAACATAGGT (sugars kkdddddddddkekek, PS)
A431, 2 µM
  target mRNA inhibition: 53%
NCI-H460, 0.037 µM
  target mRNA inhibition: 52.7%

## ATGGTGTAACATAGGT (sugars kkkdddddddddkeke, PS)
A431, 2 µM
  target mRNA inhibition: 43%

## ATGGTGTAACATAGGT (sugars kkkddddddddkdkdk, PS)
A431, 2 µM
  target mRNA inhibition: 36%
